Data taken from US9884832B2 (priority 2011, dated 2018).

Biological target: AM2 S31 (wild-type serine at position 31 in the M2 protein), influenza virus A/Udorn/72 (Influenza A virus, UniProt P0DOF5)
Assay: cell-based
Conditions: 100 uM; Xenopus oocytes; activity range class; read-out: S31 OOcyte Inhibition at 100 uM (%)

Sequence of AM2 S31 (wild-type serine at position 31 in the M2 protein), influenza virus A/Udorn/72 (P0DOF5 whole entry, looked up): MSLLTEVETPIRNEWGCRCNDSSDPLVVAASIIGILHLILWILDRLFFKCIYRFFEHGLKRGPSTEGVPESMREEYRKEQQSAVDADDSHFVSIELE

Question: For `OC12CC3CC(C1)CC(NCc1cc4cc(Br)sc4s1)(C3)C2` [Example 195a, 3-[(5-Bromo-thieno[2,3-b]thiophen-2-ylmethyl)-amino]-adamantan-1-ol], which inhibition at 100 µM is on record?
Answer: 0 to 30%

Question: With `c1cc2cc(CNC34CC5CC(CC(C5)C3)C4)ccc2s1` [Example 41a, N-(benzo[b]thiophen-5-ylmethyl)adamantan-1-amine] as the molecule, how does the inhibition at 100 µM read?
Answer: 31 to 95%

Question: With `CC(C)(C)c1nc(CNC23CC4CC(CC(C4)C2)C3)no1` [Example 103a, N-((5-(tert-butyl)-1,2,4-oxadiazol-3-yl)methyl)adamantan-1-amine] as the molecule, how does the inhibition at 100 µM read?
Answer: 0 to 30%

Question: Which inhibition at 100 µM does the source give for `c1ccc(-c2nnc(CNC34CC5CC(CC(C5)C3)C4)o2)cc1` [Example 115a, N-((5-phenyl-1,3,4-oxadiazol-2-yl)methyl)adamantan-1-amine] here?
Answer: 0 to 30%

Question: For `Oc1cc(-c2cc3ccccc3o2)ccc1CNC12CC3CC(CC(C3)C1)C2` [Example 48a], which inhibition at 100 µM is on record?
Answer: 0 to 30%

Question: `COc1ccc2cc(CNC34CC5CC(CC(C5)C3)C4)sc2c1` [Example 185a, N-((6-methoxybenzo[b]thiophen-2-yl)methyl)adamantan-1-amine] was tested. Which inhibition at 100 µM did it give?
Answer: 0 to 30%

Question: For `C1CCC(c2nc(CNC34CC5CC(CC(C5)C3)C4)no2)C1` [Example 109a, N-((5-cyclopentyl-1,2,4-oxadiazol-3-yl)methyl)adamantan-1-amine], which inhibition at 100 µM is on record?
Answer: 0 to 30%

Question: How did the inhibition at 100 µM turn out when `c1csc(-c2ccc(CNC34CC5CC(CC(C5)C3)C4)o2)c1` [Example 138a, Adamantan-1-yl-(5-thiophen-2-yl-furan-2-ylmethyl)-amine] was run?
Answer: 0 to 30%

Question: How did the inhibition at 100 µM turn out when `Cc1cc(CNC23CC4CC(CC(C4)C2)C3)no1` [Example 95a, N-((5-methylisoxazol-3-yl)methyl)adamantan-1-amine] was run?
Answer: 31 to 95%

Question: Which inhibition at 100 µM does the source give for `c1csc(-c2ccc(CNC34CC5CC(CC(C5)C3)C4)cn2)c1` [Example 58a, N-((6-(thiophen-2-yl)pyridin-3-yl)methyl)adamantan-1-amine] here?
Answer: 31 to 95%

Question: With `Brc1cc(CNC23CC4CC(CC(C4)C2)C3)on1` [Example 94a, N-((3-bromoisoxazol-5-yl)methyl)adamantan-1-amine] as the molecule, how does the inhibition at 100 µM read?
Answer: 0 to 30%

Question: With `c1ccc(Oc2ccc(CNC34CC5CC(CC(C5)C3)C4)cc2)cc1` [Example 13a, Adamantan-1-yl-(4-phenoxy-benzyl)-amine] as the molecule, how does the inhibition at 100 µM read?
Answer: 31 to 95%

Question: How did the inhibition at 100 µM turn out when `c1coc(-c2ccc(CNC34CC5CC(CC(C5)C3)C4)s2)c1` [Example 136a, N-((5-(Furan-2-yl)thiophen-2-yl)methyl)adamantan-1-amine] was run?
Answer: 0 to 30%

Question: Which inhibition at 100 µM does the source give for `COc1ccc(-c2nc(CNC34CC5CC(CC(C5)C3)C4)no2)cc1` [Example 126a, N-((5-(4-methoxyphenyl)-1,2,4-oxadiazol-3-yl)methyl)adamantan-1-amine] here?
Answer: 0 to 30%

Question: `Brc1nc(CNC23CC4CC(CC(C4)C2)C3)cs1` [Example 83a, N-((2-bromothiazol-4-yl)methyl)adamantan-1-amine] was tested. Which inhibition at 100 µM did it give?
Answer: 31 to 95%

Question: How did the inhibition at 100 µM turn out when `Oc1ccc2[nH]c(CNC34CC5CC(CC(C5)C3)C4)cc2c1` [Example 179a] was run?
Answer: 0 to 30%

Question: How did the inhibition at 100 µM turn out when `O=[N+]([O-])c1ccc(CNC23CC4CC(CC(C4)C2)C3)s1` [Example 100a, N-((5-nitrothiophen-2-yl)methyl)adamantan-1-amine] was run?
Answer: 31 to 95%

Question: For `CCc1ccc(CNC23CC4CC(CC(C4)C2)C3)s1` [Example 98a, N-((5-ethylthiophen-2-yl)methyl)adamantan-1-amine], which inhibition at 100 µM is on record?
Answer: 31 to 95%

Question: With `Cc1ccc(CNC23CC4CC(CC(C4)C2)C3)c(O)c1` [Example 51a] as the molecule, how does the inhibition at 100 µM read?
Answer: 31 to 95%

Question: `c1cc(C2CC2)ccc1CNC12CC3CC(CC(C3)C1)C2` [Example 9a, N-(4-Cyclopropylbenzyl)adamantan-1-amine] was tested. Which inhibition at 100 µM did it give?
Answer: 31 to 95%

Question: `c1ccc(-c2cc(CNC34CC5CC(CC(C5)C3)C4)no2)cc1` [Example 116a, N-((5-phenylisoxazol-3-yl)methyl)adamantan-1-amine] was tested. Which inhibition at 100 µM did it give?
Answer: 0 to 30%

Question: How did the inhibition at 100 µM turn out when `OC1CCC(CNC23CC4CC(CC(C4)C2)C3)CC1` (centres unmarked) [Example 170a, 4-(Adamantan-1-ylaminomethyl)-cyclohexanol] was run?
Answer: 0 to 30%

Same assay, conditions: Table 1; 100 uM; Xenopus oocytes, pH 5.5, -20 mV; read-out: S31 OOcyte Inhibition at 100 uM (%)

Question: For `c1cc2c(cc1CNC13CC4CC(CC(C4)C1)C3)OCO2` [Example 49], which inhibition at 100 µM is on record?
Answer: 31 to 95%

Question: `CSc1ccc(CNC23CC4CC(CC(C4)C2)C3)cc1` [Example 23, Adamantan-1-yl-(4-methylsulfanyl-benzyl)-amine] was tested. Which inhibition at 100 µM did it give?
Answer: 0 to 30%

Question: `Oc1c(F)c(F)c(CNC23CC4CC(CC(C4)C2)C3)c(F)c1F` [Example 71, 4-(Adamantan-1-ylaminomethyl)-2,3,5,6-tetrafluoro-phenol] was tested. Which inhibition at 100 µM did it give?
Answer: 0 to 30%

Question: How did the inhibition at 100 µM turn out when `Oc1cc(O)c(CNC23CC4CC(CC(C4)C2)C3)c(O)c1` [Example 70, 2-(Adamantan-1-ylaminomethyl)-benzene-1,3,5-triol] was run?
Answer: 0 to 30%

Question: For `COc1ccc(CNC23CC4CC(CC(C4)C2)C3)c(OC)c1` [Example 59, Adamantan-1-yl-(2,4-dimethoxy-benzyl)-amine], which inhibition at 100 µM is on record?
Answer: 0 to 30%

Question: For `Oc1ccc(CNC23CC4CC(CC(C4)C2)C3)cc1Cl` [Example 47, 4-(Adamantan-1-ylaminomethyl)-2-chloro-phenol], which inhibition at 100 µM is on record?
Answer: 31 to 95%

Question: How did the inhibition at 100 µM turn out when `Oc1cccc(CNC23CC4CC(CC(C4)C2)C3)c1O` [Example 64, 3-(Adamantan-1-ylaminomethyl)-benzene-1,2-diol] was run?
Answer: 31 to 95%

Question: `c1cc(COc2ccc(CNC34CC5CC(CC(C5)C3)C4)cc2)co1` [Example 22, Adamantan-1-yl-[4-(furan-3-ylmethoxy)-benzyl]-amine] was tested. Which inhibition at 100 µM did it give?
Answer: 31 to 95%

Question: Which inhibition at 100 µM does the source give for `C[S+]([O-])c1ccc(CNC23CC4CC(CC(C4)C2)C3)cc1` (centres unmarked) [Example 24, Adamantan-1-yl-(4-methanesulfinyl-benzyl)-amine] here?
Answer: 0 to 30%

Question: Which inhibition at 100 µM does the source give for `COc1ccccc1CNC12CC3CC(CC(C3)C1)C2` [Example 29, Adamantan-1-yl-(2-methoxy-benzyl)-amine] here?
Answer: 0 to 30%

Question: `Oc1ccc(CNC23CC4CC(CC(C4)C2)C3)c(Cl)c1` [Example 58, 4-(Adamantan-1-ylaminomethyl)-3-chloro-phenol] was tested. Which inhibition at 100 µM did it give?
Answer: 31 to 95%

Question: For `c1csc(-c2ccc(CNC34CC5CC(CC(C5)C3)C4)cc2)c1` [Example 44, N-(4-(Thiophen-2-yl)benzyl)adamantan-1-amine], which inhibition at 100 µM is on record?
Answer: 0 to 30%

Question: For `Oc1ccc(CNC23CC4CC(CC(C4)C2)C3)c(O)c1` [Example 46, 4-(Adamantan-1-ylaminomethyl)-benzene-1,3-diol], which inhibition at 100 µM is on record?
Answer: 31 to 95%

Question: How did the inhibition at 100 µM turn out when `COc1ccc(CNC23CC4CC(CC(C4)C2)C3)cc1O` [Example 61, 5-(Adamantan-1-ylaminomethyl)-2-methoxy-phenol] was run?
Answer: 31 to 95%

Question: Which inhibition at 100 µM does the source give for `COc1ccc(F)c(CNC23CC4CC(CC(C4)C2)C3)c1` [Example 63, Adamantan-1-yl-(2-fluoro-5-methoxy-benzyl)-amine] here?
Answer: 31 to 95%

Question: How did the inhibition at 100 µM turn out when `CC(=O)Oc1ccc(CNC23CC4CC(CC(C4)C2)C3)cc1` [Example 33, Acetic acid 4-(adamantan-1-ylaminomethyl)-phenyl ester] was run?
Answer: 31 to 95%

Same assay, conditions: Table 3; 100 uM; Xenopus oocytes, pH 5.5, -20 mV; read-out: S31 OOcyte Inhibition at 100 uM (%)

Question: With `Cc1nnc(CNC23CC4CC(CC(C4)C2)C3)o1` [Example 17b, N-((5-methyl-1,3,4-oxadiazol-2-yl)methyl)adamantan-1-amine] as the molecule, how does the inhibition at 100 µM read?
Answer: 0 to 30%

Question: Which inhibition at 100 µM does the source give for `CSc1ccccc1-c1ccc(CNC23CC4CC(CC(C4)C2)C3)cc1` [Example 66b, Adamantan-1-yl-(2′-methylsulfanyl-biphenyl-4-ylmethyl)-amine] here?
Answer: 0 to 30%

Question: How did the inhibition at 100 µM turn out when `Cc1cccc(-c2ncc(CNC34CC5CC(CC(C5)C3)C4)cn2)c1` [Example 63b, N-((2-mtolylpyrimidin-5-yl)methyl)adamantan-1-amine] was run?
Answer: 0 to 30%

Question: With `Clc1ccccc1-c1cc(CNC23CC4CC(CC(C4)C2)C3)no1` [Example 45b, N-((5-(2-chlorophenyl)isoxazol-3-yl)methyl)adamantan-1-amine] as the molecule, how does the inhibition at 100 µM read?
Answer: 0 to 30%

Question: `OC12CC3CC(C1)CC(NCc1noc(C4CCCCC4)n1)(C3)C2` [Example 86b, (1s,3r,5R,7S)-3-(((5-cyclohexyl-1,2,4-oxadiazol-3-yl)methyl)amino)adamantan-1-ol] was tested. Which inhibition at 100 µM did it give?
Answer: 0 to 30%

Question: With `Brc1ccccc1-c1cc(CNC23CC4CC(CC(C4)C2)C3)no1` [Example 43b, N-((5-(2-bromophenyl)isoxazol-3-yl)methyl)adamantan-1-amine] as the molecule, how does the inhibition at 100 µM read?
Answer: 0 to 30%

Question: With `CSc1ccccc1-c1cnc(CNC23CC4CC(CC(C4)C2)C3)s1` [Example 76b, Adamantan-1-yl-[5-(2-methylsulfanyl-phenyl)-thiazol-2-ylmethyl]-amine] as the molecule, how does the inhibition at 100 µM read?
Answer: 0 to 30%

Question: For `COc1ncc(CNC23CC4CC(CC(C4)C2)C3)cn1` [Example 55b, N-((2-methoxypyrimidin-5-yl)methyl)adamantan-1-amine], which inhibition at 100 µM is on record?
Answer: 0 to 30%

Question: With `c1cc2[nH]c(CNC34CC5CC(CC(C5)C3)C4)cc2o1` [Example 78b, Adamantan-1-yl-(4H-furo[3,2-b]pyrrol-5-ylmethyl)-amine] as the molecule, how does the inhibition at 100 µM read?
Answer: 31 to 95%

Question: Which inhibition at 100 µM does the source give for `c1ccc(-c2cnc(CNC34CC5CC(CC(C5)C3)C4)[nH]2)cc1` [Example 53b, N-((5-phenyl-1H-imidazol-2-yl)methyl)adamantan-1-amine] here?
Answer: 0 to 30%

Question: Which inhibition at 100 µM does the source give for `c1cnc2[nH]c(CNC34CC5CC(CC(C5)C3)C4)nc2c1` [Example 82b, N-((3H-imidazo[4,5-b]pyridin-2-yl)methyl)adamantan-1-amine] here?
Answer: 0 to 30%

Question: `Oc1cc(I)ccc1CNC12CC3CC(CC(C3)C1)C2` [Example 2b] was tested. Which inhibition at 100 µM did it give?
Answer: 31 to 95%

Question: For `c1nc(N2CCOCC2)ncc1CNC12CC3CC(CC(C3)C1)C2` [Example 57b, N-((2-morpholinopyrimidin-5-yl)methyl)adamantan-1-amine], which inhibition at 100 µM is on record?
Answer: 0 to 30%

Question: How did the inhibition at 100 µM turn out when `Cc1ncc(CNC23CC4CC(CC(C4)C2)C3)s1` [Example 16b, N-((2-methylthiazol-5-yl)methyl)adamantan-1-amine] was run?
Answer: 0 to 30%

Question: Which inhibition at 100 µM does the source give for `OC12CC3CC(C1)CC(NCc1noc(-c4ccccc4)n1)(C3)C2` [Example 84b, (1s,3r,5R,7S)-3-(((5-phenyl-1,2,4-oxadiazol-3-yl)methyl)amino)adamantan-1-61] here?
Answer: 0 to 30%
